Here are results for four compounds from ChEMBL document CHEMBL1141996, “cis-6-oxo-hexahydro-2-oxa-1,4-diazapentalene and cis-6-oxo-hexahydropyrrolo[3,2-c]pyrazole based scaffolds: design rationale, synthesis and cysteinyl proteinase inhibition” (Bioorg Med Chem Lett, 2005).

Broadly, the Ki is the dissociation constant of the complex between target and ligand, obtained from inhibition or displacement. The low end stands for tighter binding, the high end for weaker binding.

Assay [1] can be described thus: Binding affinity against cathepsin B.
Assay [2] has as its target Cysteine proteinase B (Leishmania mexicana, UniProt P36400). Put plainly: Binding affinity against Leishmania mexicana cysteine peptidase B (CPB).
The target in assay [3] is Cruzipain (Trypanosoma cruzi, UniProt P25779). Kind of assay: Binding affinity against cruzaine.
Assay [4] deals with Cathepsin S (Homo sapiens, UniProt P25774). Kind of assay: Binding affinity against cathepsin S.
Assay [5] is described as follows: Binding affinity against cathepsin L.
In assay [6] the target is T1, Cathepsin K (Homo sapiens, UniProt P43235).
T1 sequence (P43235 whole entry): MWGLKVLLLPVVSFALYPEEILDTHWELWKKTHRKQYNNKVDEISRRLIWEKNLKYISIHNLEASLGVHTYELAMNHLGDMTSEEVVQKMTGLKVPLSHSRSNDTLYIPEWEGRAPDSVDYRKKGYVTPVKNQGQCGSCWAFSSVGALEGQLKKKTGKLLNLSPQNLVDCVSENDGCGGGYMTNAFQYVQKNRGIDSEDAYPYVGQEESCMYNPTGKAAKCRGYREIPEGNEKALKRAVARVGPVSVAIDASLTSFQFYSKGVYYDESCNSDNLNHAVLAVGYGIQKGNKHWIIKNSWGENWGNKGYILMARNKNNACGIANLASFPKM
Kind of assay: Binding affinity against human cathepsin K.

SMILES strings stand for the structures.

Chain of Cysteine proteinase B (P36400 whole entry): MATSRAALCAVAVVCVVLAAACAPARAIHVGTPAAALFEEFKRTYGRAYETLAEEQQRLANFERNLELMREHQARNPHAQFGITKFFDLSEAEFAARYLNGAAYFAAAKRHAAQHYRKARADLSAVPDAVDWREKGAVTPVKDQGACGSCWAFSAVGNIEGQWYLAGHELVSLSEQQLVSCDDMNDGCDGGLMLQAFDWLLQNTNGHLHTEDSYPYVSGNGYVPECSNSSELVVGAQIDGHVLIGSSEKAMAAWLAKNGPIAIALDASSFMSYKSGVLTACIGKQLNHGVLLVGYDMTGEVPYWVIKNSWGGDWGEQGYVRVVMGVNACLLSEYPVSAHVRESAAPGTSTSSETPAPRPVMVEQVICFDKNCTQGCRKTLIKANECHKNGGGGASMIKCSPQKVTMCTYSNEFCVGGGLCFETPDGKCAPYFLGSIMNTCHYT
Chain of Cruzipain (P25779 whole entry): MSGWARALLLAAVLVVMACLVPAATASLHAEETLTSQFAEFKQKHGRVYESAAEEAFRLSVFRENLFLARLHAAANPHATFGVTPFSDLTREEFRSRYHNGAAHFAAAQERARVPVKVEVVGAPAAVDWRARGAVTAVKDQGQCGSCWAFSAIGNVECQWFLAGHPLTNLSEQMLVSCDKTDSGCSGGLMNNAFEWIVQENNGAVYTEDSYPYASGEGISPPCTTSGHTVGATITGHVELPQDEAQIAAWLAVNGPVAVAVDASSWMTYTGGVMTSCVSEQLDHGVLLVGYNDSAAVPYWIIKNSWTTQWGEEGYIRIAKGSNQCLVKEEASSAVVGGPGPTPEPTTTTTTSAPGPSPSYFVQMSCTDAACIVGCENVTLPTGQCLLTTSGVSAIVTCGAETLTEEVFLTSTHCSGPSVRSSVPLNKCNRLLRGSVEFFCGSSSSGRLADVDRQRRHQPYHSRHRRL
Chain of Cathepsin S (P25774 whole entry): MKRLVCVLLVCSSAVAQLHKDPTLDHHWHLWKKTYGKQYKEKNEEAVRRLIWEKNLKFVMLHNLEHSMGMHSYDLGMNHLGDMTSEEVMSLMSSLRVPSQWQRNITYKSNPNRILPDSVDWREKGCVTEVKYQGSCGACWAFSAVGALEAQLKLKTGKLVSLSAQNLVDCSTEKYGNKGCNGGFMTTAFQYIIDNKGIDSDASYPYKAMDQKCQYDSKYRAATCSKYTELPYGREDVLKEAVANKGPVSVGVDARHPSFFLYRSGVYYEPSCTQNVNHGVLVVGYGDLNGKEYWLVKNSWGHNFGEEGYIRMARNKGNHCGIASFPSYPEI

On to `CC(C)C[C@H](NC(=O)c1ccc(C(C)(C)C)cc1)C(=O)N1NC[C@@H]2[C@H]1C(=O)CN2C(=O)c1ccccc1`, for which the Ki in assay [1] is 119 nM; in assay [2], 49.5 nM; in assay [3] it was 93.2 nM; in assay [4] it was 434 nM; in assay [5] it was 370 nM; in assay [6], 3.5 nM.
Regarding `CC(C)C[C@H](NC(=O)c1ccc(N(C)C)cc1)C(=O)N1CC[C@@H]2[C@H]1C(=O)CN2C(=O)c1ccccc1`, the Ki in assay [1] was above 10000 nM; in assay [2], 1170 nM; in assay [3], 600 nM; in assay [4] it was above 3000 nM; in assay [5], 1800 nM; in assay [6], 5.5 nM.
Consider `CC(C)C[C@H](NC(=O)c1ccc(C(C)(C)C)cc1)C(=O)N1CC[C@@H]2[C@H]1C(=O)CN2C(=O)c1ccccc1`, for which the Ki in assay [1] was above 10000 nM; in assay [2] it was 691 nM; in assay [3], 173 nM; in assay [4] it was above 4500 nM; in assay [5], above 3500 nM; in assay [6], 10.1 nM.
For the compound `CC(C)C[C@H](NC(=O)c1ccc(N(C)C)cc1)C(=O)N1OC[C@@H]2[C@H]1C(=O)CN2C(=O)c1ccccc1`, the Ki in assay [1] is above 6000 nM; in assay [2], 1000 nM; in assay [3] it was 2500 nM; in assay [4], above 3000 nM; in assay [5] it was above 4300 nM; in assay [6] it was 40.1 nM.
